Consider ten compounds from patent US8466107B2, “Fibrin-binding peptides and conjugates thereof” (Bracco Imaging SpA, priority 2006, dated 2013).

In the experiment the target is DDE (fibrin-derived polypeptide) (Homo sapiens, UniProt P02671+P02675+P02679). The experiment can be described thus: Direct binding fluorescence polarization (FP) assay using 5-carboxyfluorescein labeled peptides. Particulars: 20 nM CF5-labeled peptide, serial dilutions of DDE, anisotropy read at 485 nm; read-out: KD (μM) Direct Binding (n = 2). How it is done: Assay of Fibrin Binding Peptides by Direct Binding Fluorescence Polarization (FP) Procedure using 5-Carboxyfluoresein Labeled Peptides
Protocol • 1. Prepare 1 mL of 40 nM solution of 5-carboxyfluorescein-labeled peptide in HEPES dilution buffer (HDB) with 0.01% Tween. • HDB (10 mM HEPES, 150 mM […], 2 mM CaCl2) • 2. Dilute the 40 nM solution to obtain 1 ml of a 20 nM solution of the test 5-carboxyfluorescein-labeled peptide. • 3. Prepare a solution of DDE at a concentration that will be approximately 5-10 fold greater than the expected KD. For the described assay an 8 μM concentration of DDE was prepared. • 4. Mix equal volumes of the DDE solution with the 40 nM peptide solution. • 5. Prepare serial dilutions of DDE in a solution consisting of the binding buffer with 0.01% Tween20 and 20 nM of the 5-carboxyfluorescein-labeled peptide. • 6. Make dilutions as shown in the following table in a Labsystems 384-well microplate and mix by repeated aspiration and dispensing of the solution into the wells. • 7. Centrifuge the plate at 2000 RPM for 5 minutes to remove air pockets in the wells. • 8. Read in Tecan Polarion Plate Reader at 485 nm to obtain the anisotropy value.
The anisotropy (in mP—millipolarization units) vs the logarithm of the concentration (micromoles/liter) of the receptor concentration is graphed. The dissociation constant is obtained at the midpoint of the curve whose extrema are Afree and Abound where Afree is the anisotropy of the free peptide and Abound is the anisotropy of the fully bound peptide. The theory, methods of operation and mathematical analysis is described in, for example, the following reference: Fluorescence Polarization Technical Resource Guide Technical Resource Guide 4th Edn. Invitrogen Corporation•501 Charmany Drive•Madison, Wis. 53719 USA. Particularly, the mathematical analysis of the data and obtaining binding constants is described in Chapter 8: Analysis of FP Binding Data pp 8-2-8-7.

The structures appear in SMILES notation. Bridge positions count the residues as written; N and C are the ends. Square brackets hold non-standard residues; d marks the D form. Peptide text beside a SMILES is read from it. * marks the point of attachment. 5FAM = O=C1OC2(c3ccc(O)cc3Oc3cc(O)ccc32)c2ccc(C(=O)*)cc21; Phe(3,4-F2) = N[C@@H](Cc1ccc(F)c(F)c1)C(=O)O; Phe(4-F) = N[C@@H](Cc1ccc(F)cc1)C(=O)O; Cha = N[C@@H](CC1CCCCC1)C(=O)O; AEEA = NCCOCCOCC(=O)O

Sequence of DDE (fibrin-derived polypeptide) (P02671 124-216): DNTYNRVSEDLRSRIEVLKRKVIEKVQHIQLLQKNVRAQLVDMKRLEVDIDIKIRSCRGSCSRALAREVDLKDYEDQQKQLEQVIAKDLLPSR
Sequence of DDE (fibrin-derived polypeptide) (P02675 164-491): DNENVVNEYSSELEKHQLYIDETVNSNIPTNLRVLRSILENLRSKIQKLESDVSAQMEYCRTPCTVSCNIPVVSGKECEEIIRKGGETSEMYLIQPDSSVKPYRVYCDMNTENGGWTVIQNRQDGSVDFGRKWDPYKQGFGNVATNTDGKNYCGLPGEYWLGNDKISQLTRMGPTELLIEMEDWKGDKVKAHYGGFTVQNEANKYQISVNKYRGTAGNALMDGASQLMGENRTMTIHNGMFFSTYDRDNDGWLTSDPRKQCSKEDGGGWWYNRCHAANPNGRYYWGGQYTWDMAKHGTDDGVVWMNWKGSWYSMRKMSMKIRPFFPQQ
Sequence of DDE (fibrin-derived polypeptide) (P02679 114-432): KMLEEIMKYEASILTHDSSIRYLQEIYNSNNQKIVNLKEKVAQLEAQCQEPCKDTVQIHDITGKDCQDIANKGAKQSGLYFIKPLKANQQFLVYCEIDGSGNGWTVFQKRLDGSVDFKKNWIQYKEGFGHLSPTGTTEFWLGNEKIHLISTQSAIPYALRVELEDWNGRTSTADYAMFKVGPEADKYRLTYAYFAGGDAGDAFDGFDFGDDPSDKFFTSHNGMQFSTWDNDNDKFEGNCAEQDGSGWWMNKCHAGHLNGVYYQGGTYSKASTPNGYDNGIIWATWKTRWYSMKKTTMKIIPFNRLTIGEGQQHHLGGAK
Sequence of DDE (fibrin-derived polypeptide) (P02671 36-97): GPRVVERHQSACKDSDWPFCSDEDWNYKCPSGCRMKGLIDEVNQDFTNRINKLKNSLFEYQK
Sequence of DDE (fibrin-derived polypeptide) (P02675 45-152): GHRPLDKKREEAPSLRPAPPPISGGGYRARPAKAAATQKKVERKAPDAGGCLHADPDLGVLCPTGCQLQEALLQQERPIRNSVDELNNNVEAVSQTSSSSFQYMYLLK
Sequence of DDE (fibrin-derived polypeptide) (P02679 27-88): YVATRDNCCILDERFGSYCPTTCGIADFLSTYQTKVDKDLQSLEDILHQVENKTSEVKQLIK

Regarding `CC(=O)N[C@@H](Cc1c[nH]c2ccccc12)C(=O)N[C@@H](CCC(N)=O)C(=O)N1CCC[C@H]1C(=O)N[C@H]1CSSC[C@@H](C(=O)N[C@@H](Cc2c[nH]c3ccccc23)C(=O)N[C@@H](CC(=O)O)C(=O)N2CCC[C@H]2C(=O)NCC(=O)NCC(=O)NCC(=O)N[C@@H](CCCCNC(=O)c2ccc3c(c2)C(=O)OC32c3ccc(O)cc3Oc3cc(O)ccc32)C(N)=O)NC(=O)[C@H](Cc2ccccc2)NC(=O)[C@H]([C@@H](C)O)NC(=O)[C@H](Cc2c[nH]c3ccccc23)NC(=O)[C@H](CO)NC(=O)[C@H](CCC(=O)O)NC(=O)[C@H](Cc2c[nH]c3ccccc23)NC(=O)[C@@H]2CCCN2C1=O` [Seq000-CF5, reference compound] (Ac-WQPCPWESWTFCWDPGGGK(5FAM)-NH2; disulfide 4-12), the Kd (usually the concentration at which binding is half-saturated) was 0.39 µM.

Take `CC(=O)NCC(=O)N1CCC[C@H]1C(=O)N1CCC[C@H]1C(=O)NCC(=O)N[C@@H](Cc1c[nH]c2ccccc12)C(=O)N[C@@H](CCC(N)=O)C(=O)N1CCC[C@H]1C(=O)N[C@H]1CSSC[C@@H](C(=O)N[C@@H](Cc2c[nH]c3ccccc23)C(=O)N[C@@H](CC(=O)O)C(=O)N2CCC[C@H]2C(=O)NCC(=O)NCC(=O)NCC(=O)N[C@@H](CCCCNC(=O)c2ccc3c(c2)C(=O)OC32c3ccc(O)cc3Oc3cc(O)ccc32)C(N)=O)NC(=O)[C@H](Cc2ccccc2)NC(=O)[C@H]([C@@H](C)O)NC(=O)[C@H](Cc2c[nH]c3ccccc23)NC(=O)[C@H](CO)NC(=O)[C@H](CCC(=O)O)NC(=O)[C@H](Cc2c[nH]c3ccccc23)NC(=O)[C@@H]2CCCN2C1=O` [Seq014-CF5] (Ac-GPPGWQPCPWESWTFCWDPGGGK(5FAM)-NH2; disulfide 8-16): the Kd was found to be 0.25 µM. With `CC(=O)NCC(=O)NCC(=O)N[C@@H](CCCNC(=N)N)C(=O)NCC(=O)N[C@@H](Cc1c[nH]c2ccccc12)C(=O)N[C@@H](CCC(N)=O)C(=O)N1CCC[C@H]1C(=O)N[C@H]1CSSC[C@@H](C(=O)N[C@@H](Cc2c[nH]c3ccccc23)C(=O)N[C@@H](CC(=O)O)C(=O)N2CCC[C@H]2C(=O)NCC(=O)NCC(=O)NCC(=O)N[C@@H](CCCCNC(=O)c2ccc3c(c2)C(=O)OC32c3ccc(O)cc3Oc3cc(O)ccc32)C(N)=O)NC(=O)[C@H](Cc2ccccc2)NC(=O)[C@H]([C@@H](C)O)NC(=O)[C@H](Cc2c[nH]c3ccccc23)NC(=O)[C@H](CO)NC(=O)[C@H](CCC(=O)O)NC(=O)[C@H](Cc2c[nH]c3ccccc23)NC(=O)[C@@H]2CCCN2C1=O` [Seq015-CF5] (Ac-GGRGWQPCPWESWTFCWDPGGGK(5FAM)-NH2; disulfide 8-16), the Kd worked out at 0.29 µM.

For the compound `CC(=O)NCC(=O)N[C@@H](Cc1c[nH]c2ccccc12)C(=O)N[C@@H](CCC(N)=O)C(=O)N1CCC[C@H]1C(=O)N[C@H]1CSSC[C@@H](C(=O)N[C@@H](Cc2c[nH]c3ccccc23)C(=O)N[C@@H](CC(=O)O)C(=O)N2CCC[C@H]2C(=O)NCC(=O)NCC(=O)NCC(=O)N[C@@H](CCCCNC(=O)c2ccc3c(c2)C(=O)OC32c3ccc(O)cc3Oc3cc(O)ccc32)C(N)=O)NC(=O)[C@H](Cc2ccccc2)NC(=O)[C@H]([C@@H](C)O)NC(=O)[C@H](Cc2c[nH]c3ccccc23)NC(=O)[C@H](CO)NC(=O)[C@H](CCC(=O)O)NC(=O)[C@H](Cc2c[nH]c3ccccc23)NC(=O)[C@@H]2CCCN2C1=O` [Seq016-CF5] (Ac-GWQPCPWESWTFCWDPGGGK(5FAM)-NH2; disulfide 5-13), the Kd was 0.23 µM. In the case of `CC(=O)N[C@@H](CO)C(=O)NCC(=O)N[C@@H](CO)C(=O)NCC(=O)NCCOCCOCC(=O)N[C@@H](Cc1c[nH]c2ccccc12)C(=O)N[C@@H](CCC(N)=O)C(=O)N1CCC[C@H]1C(=O)N[C@H]1CSSC[C@@H](C(=O)N[C@@H](Cc2c[nH]c3ccccc23)C(=O)N[C@@H](CC(=O)O)C(=O)N2CCC[C@H]2C(=O)NCC(=O)NCC(=O)NCC(=O)N[C@@H](CCCCNC(=O)c2ccc3c(c2)C(=O)OC32c3ccc(O)cc3Oc3cc(O)ccc32)C(N)=O)NC(=O)[C@H](Cc2ccccc2)NC(=O)[C@H]([C@@H](C)O)NC(=O)[C@H](Cc2c[nH]c3ccccc23)NC(=O)[C@H](CO)NC(=O)[C@H](CCC(=O)O)NC(=O)[C@H](Cc2c[nH]c3ccccc23)NC(=O)[C@@H]2CCCN2C1=O` [Seq017-CF5] (Ac-SGSG[AEEA]WQPCPWESWTFCWDPGGGK(5FAM)-NH2; disulfide 9-17), the Kd came out at 0.45 µM.

Turning to `CC(=O)N[C@@H](Cc1c[nH]c2ccccc12)C(=O)N[C@@H](CCC(N)=O)C(=O)N1CCC[C@H]1C(=O)N[C@H]1CSSC[C@@H](C(=O)N[C@@H](Cc2c[nH]c3ccccc23)C(=O)N[C@@H](CC(=O)O)C(=O)N2CCC[C@H]2C(=O)NCC(=O)NCC(=O)NCC(=O)N[C@@H](CCCCNC(=O)c2ccc3c(c2)C(=O)OC32c3ccc(O)cc3Oc3cc(O)ccc32)C(N)=O)NC(=O)[C@H](CC2CCCCC2)NC(=O)[C@H]([C@@H](C)O)NC(=O)[C@H](Cc2c[nH]c3ccccc23)NC(=O)[C@H](CO)NC(=O)[C@H](CCC(=O)O)NC(=O)[C@H](Cc2c[nH]c3ccccc23)NC(=O)[C@@H]2CCCN2C1=O` [Seq018-CF5, Ac-WQPC*PWESWT-Cha-C*WDPGGGK(CF5)-NH2] (Ac-WQPCPWESWT[Cha]CWDPGGGK(5FAM)-NH2; disulfide 4-12), the Kd is 0.2 µM.

As to `CC(=O)N[C@@H](Cc1c[nH]c2ccccc12)C(=O)N[C@@H](CCC(N)=O)C(=O)N1CCC[C@H]1C(=O)N[C@H]1CSSC[C@@H](C(=O)N[C@@H](Cc2c[nH]c3ccccc23)C(=O)N[C@@H](CC(=O)O)C(=O)N2CCC[C@H]2C(=O)NCC(=O)NCC(=O)NCC(=O)N[C@@H](CCCCNC(=O)c2ccc3c(c2)C(=O)OC32c3ccc(O)cc3Oc3cc(O)ccc32)C(N)=O)NC(=O)[C@H](Cc2ccc(F)cc2)NC(=O)[C@H]([C@@H](C)O)NC(=O)[C@H](Cc2c[nH]c3ccccc23)NC(=O)[C@H](CO)NC(=O)[C@H](CCC(=O)O)NC(=O)[C@H](Cc2c[nH]c3ccccc23)NC(=O)[C@@H]2CCCN2C1=O` [Seq019-CF5, Ac-WQPC*PWESWT-Ffe4-C*WDPGGGK(CF5)-NH2] (Ac-WQPCPWESWT[Phe(4-F)]CWDPGGGK(5FAM)-NH2; disulfide 4-12), the Kd stood at 1.02 µM. Next, `CC(=O)N[C@@H](Cc1c[nH]c2ccccc12)C(=O)N[C@@H](CCC(N)=O)C(=O)N1CCC[C@H]1C(=O)N[C@H]1CSSC[C@@H](C(=O)N[C@@H](Cc2c[nH]c3ccccc23)C(=O)N[C@@H](CC(=O)O)C(=O)N2CCC[C@H]2C(=O)NCC(=O)NCC(=O)NCC(=O)N[C@@H](CCCCNC(=O)c2ccc3c(c2)C(=O)OC32c3ccc(O)cc3Oc3cc(O)ccc32)C(N)=O)NC(=O)[C@H](Cc2ccc(F)c(F)c2)NC(=O)[C@H]([C@@H](C)O)NC(=O)[C@H](Cc2c[nH]c3ccccc23)NC(=O)[C@H](CO)NC(=O)[C@H](CCC(=O)O)NC(=O)[C@H](Cc2c[nH]c3ccccc23)NC(=O)[C@@H]2CCCN2C1=O` [Seq020-CF5, Ac-WQPC*PWESWT-F34fe-C*WDPGGGK(CF5)-NH2] (Ac-WQPCPWESWT[Phe(3,4-F2)]CWDPGGGK(5FAM)-NH2; disulfide 4-12): 0.7 µM; `C[C@@H](O)[C@@H]1NC(=O)[C@H](Cc2c[nH]c3ccccc23)NC(=O)[C@H](CO)NC(=O)[C@H](CCC(=O)O)NC(=O)[C@H](Cc2c[nH]c3ccccc23)NC(=O)[C@@H]2CCCN2C(=O)[C@@H](NC(=O)[C@@H]2CCCN2C(=O)[C@H](CCC(N)=O)NC(=O)[C@H](Cc2c[nH]c3ccccc23)NC(=O)CNC(=O)[C@@H](N)CCCNC(=N)N)CSSC[C@@H](C(=O)N[C@@H](Cc2c[nH]c3ccccc23)C(=O)N[C@@H](CC(=O)O)C(=O)N2CCC[C@H]2C(=O)NCC(=O)NCC(=O)NCC(=O)N[C@@H](CCCCNC(=O)c2ccc3c(c2)C(=O)OC32c3ccc(O)cc3Oc3cc(O)ccc32)C(N)=O)NC(=O)[C@H](Cc2ccccc2)NC1=O` [Seq022-CF5] (H-RGWQPCPWESWTFCWDPGGGK(5FAM)-NH2; disulfide 6-14; N-terminus assumed): 0.28 µM; `C[C@@H](O)[C@@H]1NC(=O)[C@H](Cc2c[nH]c3ccccc23)NC(=O)[C@H](CO)NC(=O)[C@H](CCC(=O)O)NC(=O)[C@H](Cc2c[nH]c3ccccc23)NC(=O)[C@@H]2CCCN2C(=O)[C@@H](NC(=O)[C@@H]2CCCN2C(=O)[C@H](CCC(N)=O)NC(=O)[C@H](Cc2c[nH]c3ccccc23)NC(=O)[C@@H](N)CCCNC(=N)N)CSSC[C@@H](C(=O)N[C@@H](Cc2c[nH]c3ccccc23)C(=O)N[C@@H](CC(=O)O)C(=O)N2CCC[C@H]2C(=O)NCC(=O)NCC(=O)NCC(=O)N[C@@H](CCCCNC(=O)c2ccc3c(c2)C(=O)OC32c3ccc(O)cc3Oc3cc(O)ccc32)C(N)=O)NC(=O)[C@H](Cc2ccccc2)NC1=O` [Seq023-CF5] (H-RWQPCPWESWTFCWDPGGGK(5FAM)-NH2; disulfide 5-13; N-terminus assumed): 0.11 µM.
